Data set [1] deals with NPC1 mutant (null or I1061T) cells. Briefly: Rescue of lysosomal tubulation by 27-HC in NPC1 mutant cells (FIG. 5). The class given is cell-based. Conditions: 27-HC in a cocktail that bypasses receptor-mediated endocytosis. The source says:
FIG. 5. Impact of NPC1 and StARD9 Mutations on Rescue of Lysosomal Tubulation by 27-Hydroxycholesterol (27-HC). The ability of 27-HC to rescue lysosomal tubulation after depletion of NPC1 (shRNA-NPC1) or StARD9 (shRNA-STARD9) was compared to cells expressing the NPC1 (I1061T)-eGFP mutant (I1061T) or a eGFP-StARD9 construct expressing amino acids 1-4483 (STARD9-ΔSTART). ***—p<0.005; ns (not significant).
(§1) To test this idea, we treated either NPC1 mutant (null or I1061T) or StARD9 mutant (null or truncation mutant) cells with 27-HC in a cocktail that delivers it into the cytoplasm independent of receptor-mediated endocytosis. […] Next, we treated NPC1(−/−) mice with 27-HC by i.p. delivery.

Data set [2] has as its system NPC1 (I1061T/I1061T) mice. As to the kind of experiment: 27-HC treatment of NPC1 (I1061T/I1061T) mice by oral gavage. The format is in vivo. The protocol:
FIG. 11. Impact of 27-HC Treatment on NPC1 (I1061T/I1061T) Mice. Kaplan-Meier lifespan analysis of NPC1 (I1061T/I1061T) mice treated with either 0 mg/kg (dashed line) or 5 mg/kg (solid line) 27-HC three times per week by oral gavage.
FIG. 13. Impact of 27-HC Treatment on Lipid Accumulation in Livers of Male and Female Mice. Comparing livers of wild-type vs. NPC1 (I1061T/I1061T) mice, lipid accumulations (black arrows) are apparent in NPC1 mutant mice but not wild-type mice. This is true and both males and females.
as §1

For data set [3] the following is noted: in vivo. The protocol: Studies have tested treatment 1× per week and 3× per week. However, from pharmacokinetic studies, it is known that 27-HC levels are only retained for 1-2 days. We will increase to daily treatment by oral gavage and measure serum levels of 27-HC to confirm maintenance of therapeutic levels. […] We will increase to higher doses by adding higher levels of DMSO to allow treatment with 20 mg/kg and 40 mg/kg.
We anticipate an increased benefit from treatment on a daily basis because the pharmacokinetics inform us about how long 27-HC remains in the blood (-100 ng/ml for 12 hours). For reference, children treated with Miglustat are dosed 3× per day. Higher doses of 27-HC and alternative cocktails are expected to reveal which parameters are more important for success. […] When crossed with NPC1(−/−) mice, they observe a significant decrease in NPC disease symptoms and an extension of lifespan (personal communication). This provides independent validation of the benefits associated with treatment with 27-HC. Finally, we expect improved outcomes for mice treated from conception over waiting until weaning (P21). This is because there is such a long window of brain development and maturation from conception to P21, that any developmental aspect of NPC disease would be well underway before we begin treatment at weaning.

Another data set relates to NPC mutant mice. Briefly: Therapeutic administration of 27-HC in two transgenic strains of mice with NPC1 mutations (summary). The class given is in vivo. From the text: Mutations in the NPC1 gene affect two independent lysosomal functions. The first is the generation of lysosomal tubules as a mechanism to deliver intracellular cholesterol to other membrane-bound compartments. Because this function is impaired in NPC disease, we investigated the protein components necessary for tubule projection. We identified 27-HC as a signaling molecule that stimulates lysosomal tubulation and is not provided properly to lysosomal membrane to elicit tubulation in NPC disease. To correct this defect, we provide pure 27-HC in a cocktail that bypasses endocytosis. […] We have also tested this therapy in two different transgenic strains of mice with NPC1 mutations. […] Because we know the molecular target for 27-HC (StARD9), we tested 27-HC treatment in mice where we removed the StARD9 gene. […] This confirms the molecular target for 27-HC treatment and is consistent with our proposed model for the defects in NPC disease. Independent of the role for NPC1 in lysosomal tubulation, NPC1 is the “receptor” for the pro-apoptotic protein STING. STING is a signaling molecule that is activated by cell insults, including defective cholesterol transport. Once STING is activated, it triggers programmed cell death pathways. Counteracting STING activation, STING is silenced by binding to lysosomes, which leads to STING degradation and inactivation of this pathway. This silencing is required to prevent STING activation to proceed long-term. We recently discovered that the “receptor” on lysosomes that drives STING silencing is also NPC1. In cells mutant for NPC1, STING silencing is impaired, thereby leading to programmed cell death. As a result, NPC1 mutations cause cell death in two different ways. They cause loss of lysosomal tubulation, and they cause perpetual activation of STING.
We further propose that NPC1 is required for two functions in cells. The first is cholesterol transport from the lysosome to ER. If this activity is impaired, cells are “starved” of cholesterol in the ER. This has consequences for cholesterol metabolism and activates STING. Second, NPC1 in the lysosome is the receptor for STING that is required for STING silencing. In the absence of NPC1, STING remains active after initial activation (Priming) but also amplifies the responses including apoptosis. The dual roles of NPC1 are consistent with results across the NPC field. First, this explains why our StARD9 (−/−) mice are less severe than NPC1 (−/−) mice. NPC1(−/−) mice cause STING activation and impair STING silencing. […] Second, NPC1 (−/−) mice are more severe than NPC1 (I1061 T/I1061 T) mice because the NPC1 […] mice must reduce STING activation and retain some STING silencing compared to nulls.

[4] abbreviates: NPC1 (I1061T/I1061T) mice, oral gavage, vs vehicle alone.
Where [5] appears, read: two transgenic strains with NPC1 mutations.

Entries after “also recorded” stand apart in the source; their conditions may differ.

One molecule from patent US20250114377A1, “TWO-PRONGED TREATMENT FOR NIEMANN PICK TYPE C DISEASE” (UNIVERSITY OF NOTRE DAME DU LAC, priority 2022, published 2025) can be followed below.

Regarding `C[C@@H](CO)CCC[C@@H](C)[C@H]1CC[C@H]2[C@@H]3CC=C4C[C@@H](O)CC[C@]4(C)[C@H]3CC[C@]12C` [27-HC, 27-hydroxycholesterol], the “Rescue of lysosomal tubulation in NPC1 mutant cells” value in data set [1] is “rescued lysosomal tubulation in NPC1 mutant; also recorded: corrects the lysosomal tubulation defects”. Also, in data set [2] (NPC1 (I1061T/I1061T) mice, 5 mg/kg vs 0 mg/kg three times per week oral gavage, p=0.0108), the “Lifespan (Kaplan-Meier)” value is on record as “extended the lifespan of the mice; also recorded: Extension of lifespan was significant”. Besides, the “Lipid accumulation in livers” value in data set [2] (NPC1 (I1061T/I1061T) mice, males and females) was “successful in reducing these lipid accumulations”. Besides, the “Sex difference of treatment benefit” value in data set [2] (NPC1 (I1061T/I1061T) mice, oral gavage) is reported as “worked better in males than females”. Moreover, in data set [2] (setting [4]), the Onset of symptoms entry was “delayed the onset of symptoms” and the Severity of symptoms result was “reduced the severity of symptoms”. In addition, in data set [2] (female NPC1 (I1061T/I1061T) mice), the “Dosage needed for reduction of liver lipid accumulations, females” value is listed as 40 mg/kg. In addition, the “Sufficiency of the highest dose used, livers” value in data set [2] (females compared to males) was “not sufficient in females compared to males”. Further, the “Dosage needed for reduction of liver lipid accumulations, males” value in data set [2] (male NPC1 (I1061T/I1061T) mice) came to 10 mg/kg. Besides, in data set [3], the “How long 27-HC remains in the blood” value was determined as 12 h and the “Time 27-HC levels are retained” value fell in the range of 1 to 2 days. Further, in data set [3] (12 hours), the “27-HC level in the blood” value is -100 ng/mL. For the same molecule, the “Overall improvement for NPC1 mutant mice” value in the data set with NPC mutant mice (mouse, in vivo) is recorded as “statistically-significant improvement”. Moreover, in the data set with NPC mutant mice (setting [5]), the “Lifespan of mutant mice” value is “extends the lifespan of mutant mice significantly”; the “Lysosomal tubulation in NPC mutant mice” value is given as “rescues lysosomal tubulation”; the “Onset, severity and progression of NPC disease” value is “delays the onset, severity and progression of NPC disease”.
